# Data from US20210017607A1, “Methods of Predicting Responsiveness to Cancer Therapies” (The University of Chicago, priority 2019, published 2021).
# Experiments:
# Myc-CAP-PTEN^−/− tumors = assay: Myc-CAP-PTEN−/− syngeneic tumors in vivo (growth, flow cytometry); parameters: species or system mouse
# Description: FIGS. 35A-35D. […] (35A) Myc-CAP-PTEN^−/− cells were treated with copanlisib […] (IC90 concentration) in vitro for 24 hours, and protein extracts were harvested for western blotting analysis with the indicated antibodies to analyze PI3K activation. (35B) Supernatants from (35A) were harvested for cytokine array profiling. n=3 independent in vitro experiments. (35C) Mice bearing Myc-CAP-PTEN^−/− established syngeneic tumors (200 mm^3) were treated with copanlisib (14 mg/kg, every other day, until tumors reached 2000 mm^3). Tumor volumes were monitored daily and graphed. (35D) At the end of treatment, tumors were analyzed by flow cytometry for tumor infiltrating immune cell subsets. n=5 mice per group.
# FIGS. 37A and 37B. Myc-CAP-PTEN deficient cancers are resistant to ADT/PARPi/PI3Ki/combination due to an absence of macrophage infiltration/activation and secondary CD8/CD4 T cell infiltration following treatment. Syngeneic PTEN-proficient and PTEN-deficient Myc-CAP mice were treated with a single dose of degarelix, rucaparib (PARP inhibitor), BKM120 (pan-PI3K inhibitor), or anti-PD-L1 antibody, singly and in combination for 3 weeks. (37A) Tumor volumes were monitored, as indicated. (37B) Tumors were harvested at the end of treatment and macrophage infiltration and activation (upper left and right panels), and CD4 and CD8 T cell infiltration (lower left and right panels, respectively) were analyzed by flow cytometry. n=3 animals/group.
# FIG. 44. […] Syngeneic mice bearing established PTEN-proficient (PTEN^+/+) and PTEN-deficient (PTEN^−/−) Myc-CAP tumors (200 mm^3) were treated with DMXAA ([…] intra-tumoral dose) for 12 days. Tumor volumes were monitored daily and graphed relative to untreated groups. n=3-5 mice per group.
# (§1) FIGS. 45A and 45B. […] Syngeneic mice bearing established PTEN-proficient (PTEN^+/+) and PTEN-deficient (PTEN^−/−) Myc-CAP tumors (200 mm^3) were treated with DMXAA (500 μg, single intra-tumoral dose) for 12 days. The harvested tumors were analyzed by flow cytometry for CD45 (45A) and tumor infiltrating immune cell subsets (45B). n=3-5 mice per group.
# FIGS. 46A-46C. […] Syngeneic mice bearing established PTEN-proficient (PTEN^+/+) or PTEN-deficient (PTEN^−/−) Myc-CAP tumors (200 mm^3) were treated with DMXAA (500 μg, single intra-tumoral dose) for 12 days. The harvested tumors were analyzed by flow cytometry for activation status of immune cells: (46A) MHC-II/PD-L1 expression on macrophages; (46B) 41bb/PD-1 expression on CD4+FoxP3-T-cells and (46C) on CD8+T-cells. n=3-5 mice per group.
# as §1, with “FIG. 47.” for “FIGS. 45A and 45B.”, “CD4+T-cells subsets, specifically FoxP3+” for “CD45 (45A)”, “FoxP3− fractions.” for “tumor infiltrating immune cell subsets (45B).”
# In vivo drug efficacy studies using murine tumor models. Wild-type (WT) C57BL/6J, FVB/NJ mice were purchased from Jackson laboratories and mice were kept in an AALAC (American Association for the Accreditation of Laboratory Animal Care) certified barrier facility at the University of Chicago. Animal work was carried out according to approved IACUC (Institutional Animal Care and Use Committee protocols). For Myc-CAP cell line based experiments, mice aged 8-10 weeks were engrafted with 1 million cells re-suspended in 1×PBS, under anesthesia. Treatments were started when tumor volumes reached approximately 250-400 mm^3, and mice were randomly allocated to treatment groups as indicated. Tumor volume was calculated using the formula: 0.5×longest diameter×(shortest diameter)^2. Euthanasia was performed for tumor ulceration and/or tumor diameter >2 cm, as per IACUC-approved protocol. All in vivo treatments were done for 20-23 days and tumor volume measurements were collected on a daily basis. For ID8 tumors, the weights (gm) as well as the abdominal girth (mm) measurements were recorded daily. […]
# [1] = system: PTEN/p53-deficient GEMM tumors; assay: PTEN/p53-deficient GEMM in vivo immune profiling; parameters: species or system mouse; settings: for CD4 and CD8 T-cell infiltration / Gr-MDSC and Tregs: copanlisib 14 mg/kg/day every alternate day, 4 weeks
# Description: FIGS. 48A and 48B. […] PTEN/p53-deficient GEMM mice with established tumors were treated with DMXAA every other day for 14 days. Tumors were harvested and subjected to flow cytometry for detection of the indicated markers. (48A) CD8 infiltration; (48B) M1/M2 ratio of F4/80^+ cells where M1 are defined as MHC-II^+ and M2 cells are MHC-II^−. The frequency of Gr-MDSCs (Ly6C^−Ly6G^+) and surface expression of V-domain Ig suppressor of T cell activation (VISTA) and PD-L1 on Gr-MDSCs are shown.
# FIGS. 71A and 71B. […] PTEN/p53-deficient GEMM mice (n=2/group) with established tumors were treated with copanlisib (14 mg/kg/day, every alternate day) for 4 weeks. Tumors were collected and analyzed for changes in global immune infiltrates, shown clockwise from twelve o'clock: CD4+, CD8+, CD19+, F4/80+, CD11c+, Mo-MDSC, Gr-MDSC, neutrophils (71A) and Treg frequency (71B) by flow cytometry. n=2 mice per arm.
# Flow Cytometry. Murine tumors: Murine tumors were processed into single cell suspensions via gentle mechanical dissociation in 6 well plates containing 1 mL of 10% RPMI media supplemented with 10% fetal bovine serum, 1% penicillin-streptomycin and 2% L-glutamine. Cell suspensions were centrifuged at 500×g for 5 minutes at 4° C. and were passed through a 70-micron mesh, prior to re-suspension in FACS buffer (1×PBS containing 0.5% FBS and 0.01% sodium azide). For the stain, one million cells resuspended in 1×FACS buffer, were incubated with titrated concentrations of anti-mouse antibodies (Biolegend®), namely, CD45, CD11b, CD11c, CD19, F480,Ly6G, Ly6C, PD-L1, VISTA, I-A^e/IA^b, H-2K^b, CD3, CD4, CD8, 4-1BB, ICOS, and PD-1. Incubation with antibodies was done at 4° C. for 30-40 minutes. Following staining, cells were washed twice with 1× FACS buffer and fixed with 300 microliters of 4% paraformaldehye (Fisher Scientific®). Intracellular stains were done following fixation and permeabilization by staining with anti-mouse FOXP3 (Biolegend®) as per manufacturer's protocol. Analysis of cellular stains were done using BD instrument LSR 4-15 Fortessa™. Data files collected using BDFACSDIVA software were analyzed using FlowJo® software (Tree Star).
# [2] = copanlisib 14 mg/kg every other day
# [3] = DMXAA 500 μg single intra-tumoral dose, 12 days
# [4] = relative to PTEN-proficient counterparts
# [5] = DMXAA every other day for 14 days
SMILES,MDSC infiltration (Myc-CAP-PTEN^−/− tumors; [2]),tumor growth (Myc-CAP-PTEN^−/− tumors; [2]),CD4 and CD8 T-cell infiltration [1],Gr-MDSC and Tregs [1],CD4 and CD8 T-cell infiltration ([1]; listed as Copanlisib),Gr-MDSC and Tregs ([1]; listed as Copanlisib),Gr-MDSCs (Myc-CAP-PTEN^−/− tumors; [3]),global immune infiltration (CD45) (Myc-CAP-PTEN^−/− tumors; [3]),"tumor responsiveness of PTEN-deficient relative to PTEN-proficient Myc-CAP tumors (Myc-CAP-PTEN^−/− tumors; DMXAA single intra-tumoral dose, 12 days)",response of PTEN-deficient prostate cancers to direct STING agonist (Myc-CAP-PTEN^−/− tumors; PTEN-deficient prostate cancer murine models (Example 1)),"macrophage, CD4 and CD8 T-cell activation (Myc-CAP-PTEN^−/− tumors; [4])",regulatory T-cell infiltration (Myc-CAP-PTEN^−/− tumors; [4]),"CD8 T cell infiltration [1, 5]","myeloid immunosuppression [1, 5]","MDSC infiltration ([1]; DMXAA, PTEN/p53 GEMM mice)","VISTA and PD-L1 checkpoint expression on MDSCs ([1]; DMXAA, PTEN/p53 GEMM mice)",myeloid reprogramming and Type I interferon production within the TME ([1]; Myc-CAP-PTEN knockout and PTEN/p53-deficient GEMM tumors),TIL exhaustion markers ([1]; after DMXAA)
COc1c(OCCCN2CCOCC2)ccc2c1N=C(NC(=O)c1cnc(N)nc1)N1CCN=C21 [copanlisib],decreasing,retards growth,striking increase,depletion,increases CD4 and CD8 T-cell infiltration,decreases Gr-MDSC and Tregs,–,–,–,–,–,–,–,–,–,–,–,–
"Cc1ccc2c(=O)c3cccc(CC(=O)O)c3oc2c1C [DMXAA, 5,6-Dimethylxanthenone-4-acetic Acid]",–,–,–,–,–,–,trend towards decreasing Gr-MDSCs,increases global immune infiltration,more responsive,resistant,"selectively increases macrophage, CD4 and CD8 T-cell activation",increases regulatory T-cell infiltration,increases CD8 T cell infiltration,relieves myeloid immunosuppression,decreased MDSC infiltration,reduction,myeloid reprogramming and Type I interferon production,"decreased 4-1BB, decreased ICOS and increased PD-1"
